Measurements as given in US9783551B2, “Pyranochromenyl phenol derivative, and pharmaceutical composition for treating metabolic syndrome or inflammatory disease” (GLACEUM, INC., priority 2013, dated 2017).

Assays:
[1] = Chemical stability in 1% NaOH in MeOH (HPLC); format: physicochemical; conditions: for stability in words: until 3 days (72 hours)
Protocol: The relative chemical stability of glabridin of Preparation Example 1, Example 3 (Compound 4), Example 4 (Compound 5) and Example 14 (Compound 15) were compared with each other. That is, 50 mg of each of glabridin, Compound 4, Compound 5, and Compound 15 was exactly weighed, dissolved in 50 ml of 1% HCl in MeOH and 10 ml of 1% NaOH in MeOH, and the concentrations of the compounds were examined by HPLC at each time level of 0, 8 hrs, 12 hrs, 24 hrs, 48 hrs, and 72 hrs. At this time, the concentrations of the compounds remaining in 1% HCl in MeOH and 1% NaOH in MeOH were determined using an internal standard (Compound 14 of Example 13). That is, 10 mg of Compound 14 was exactly weighed and dissolved in 100 ml of acetonitrile, 9 ml of this solution was mixed with 1 ml of the sample aliquoted at each time level, the mixture was analyzed by HPLC, and the concentrations of the compounds in the internal standard and in the above samples were determined by comparing the initial values.
The concentrations of the compounds remaining in 1% HCl in MeOH and 1% NaOH in MeOH at each time level are in the following Table 8 and FIG. 7 and the following Table 9 and FIG. 8, respectively.
The numerical values exceeding 100% in the following Tables 8 and 9 show those measured at a concentration is slightly higher than the initial measurement value, and this is due to the fact that an average value of the measured values was simply shown without considering a statistical error generated during the measurement. Since the measured value of about 95% or more is deemed to have practically no change in concentration, it may be seen that the compounds of the present invention are excellent in chemical stability.

[2] = tested on: DIO mice; assay: Organ weights and blood biochemistry of DIO mice after 28 days of administration; format: in vivo, C57BL/6 mice; conditions: 150 mg/kg
Protocol: Five-week-old female C57BL/6 mice (Narabio Co., Ltd.) were purchased and fed with only high-fat diet for at least 10 weeks to produce diet induced obesity ([…]) mice. Samples were exactly taken from Preparation Example 1 (glabridin) and the compounds of Examples of the present invention (Compounds 1 to 5, 7, 9, 11, 14 to 16, 21, and 23) according to the administration dose and put into Falcon tubes, 3 ml of a 0.5% methyl cellulose aqueous solution was added thereto and a vortex mixer was used to primarily mix the ingredients in a soft manner, and then a homogenizer (30,000 rpm, Ultra-Turrax® T10 Basic, IKA) was used to treat the sample for 3 minutes while 1.5 ml of a 0.5% methyl cellulose aqueous solution was added thereto. The sample thus prepared was administered through oral gavage using a disposable plastic syringe once daily for 28 days (4 weeks). The body weight was measured twice a week while the DIO mice were bred in this manner. Based on the data thus calculated, the anti-obesity effect (%) was calculated according to the equation defined as follows. Anti-Obesity Effect={(Body weight of control group)−(Body weight of experimental group)}/(Body weight of control group)×100
After the experiment was performed for 28 days (4 weeks) as described above, blood was simultaneously taken while the experimental animal was finally sacrificed, and each of the organs (liver, heart, kidney, pancreas, fat tissues and the like) was removed to measure the weight and observe peculiar matters.
In Table 3, { }, ( ) and the like were used in order to differentiate experiments which had been performed at different periods. Experiments without the parenthesis were those simultaneously performed under the same conditions.

[3] = tested on: db/db mice; assay: Anti-diabetic effects for db/db mice (glycosylated hemoglobin); format: in vivo, C57BLKS/J-db/db mice
Protocol: 5-week-old male C57BLKS/J-db/db mice (Central Lab. Animal Inc.) were purchased and acclimatized for 2 weeks, and then used in this experiment. Samples were exactly taken from the compounds prepared in Examples 4 and 15 of the present invention (Compounds 5 and 16) according to the administration dose and put into Falcon tubes, a 0.5% methyl cellulose aqueous solution stored refrigerated was placed at room temperature to allow the excipients to be warmed at room temperature, 16 ml of each of the excipients was added to a 50 ml Falcon tube, and a vortex mixer was used to primarily mix the ingredients in a soft manner, and then a suspension was obtained and homogenized by treating the sample for 3 minutes using a homogenizer (30,000 rpm, CPT-1600E, Kinemtica, Switzerland), and then ultrasonically treated for 30 minutes. The sample thus prepared was administered through oral gavage using a disposable plastic syringe equipped with a sonde once daily for 42 days (6 weeks).
The glycosylated hemoglobin (HbA1c) was measured while the db/db mice were bred. The gyclosylated hemoglobin was measured at 2 days prior to group separation, 4 weeks after administration, and 6 weeks after administration, and was measured by fasting the mice for 4 hours on the measurement date, collecting blood from the caudal vein before each material was administered, and using a device for measuring glycosylated hemoglobin (SD A1cCare, SD Biosensor, Inc., Korea).

[4] = tested on: DIO mice; assay: Anti-obesity effect for DIO mice (body weight); format: in vivo, C57BL/6 mice; conditions: Mus musculus, 672 h; 4 weeks, 150 mg/kg, oral gavage once daily
How it was run: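 Female C57BL/6 mice made obese by ≥10 weeks of high-fat diet; compounds suspended in 0.5% methyl cellulose and given by oral gavage once daily for 28 days. Body weight measured twice weekly; effect (%) = (control weight − treated weight)/control weight × 100.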

[5] = tested on: C2C12 cells; assay: Glucose uptake (2-NBDG) in C2C12 cells; format: cell-based; conditions: compared with Rosiglytazone and Metformin
Protocol: In terms of capacity of glucose uptake in C2C12 cells, the compound (Compound 15) of Example 14 of the present invention was compared with the existing Rosiglytazone and Metformin which were used or are currently used as a therapeutic agent for diabetes. The C2C12 cell was cultured in a Dulbecco's modified eagle medium (DMEM) supplemented with 10% fetal bovine serum (FBS), penicillin (120 unit/mL), and streptomycin (75 μg/mL), the medium used for differentiation was a DMEM medium supplemented with 1% horse serum, and the C2C12 cell was cultured in the DMEM medium for 4 days. The cell thus cultured was treated with Compound 15 in a low-glucose, serum-free medium supplemented with 2-[N-(7-nitrobenz-2-oxa-1,3-diazol-4-yl)amino]-2-deoxy-d-glucose (2-NBDG) for 24 hours to measure the glucose absorbance at an excitation wavelength of 485 nm and an emission wavelength of 535 nm using a fluorescent detector. The same experiment was performed on Rosiglytazone and Metformin.

With `CCCc1ccc(C2COc3c(ccc4c3CCC(C)(C)O4)C2)c(O)c1` (centres unmarked) [Compound 5, 3-(2-hydroxy-4-propylphenyl)-8,8-dimethyl-2,3,4,8,9,10-hexahydropyrano [2,3-f] chromene] the “concentration of compound remaining” value [1]; 0 was 100%, the “concentration of compound remaining” value ([1]; 8 h) was 101% and the “concentration of compound remaining” value ([1]; 24 h) was 102%. For the same compound, the “concentration of compound remaining” value ([1]; 48 h) was 100%, the “concentration of compound remaining” value ([1]; 72 h) was 102% and the stability in words [1] was “very stable”. The “ALT (U/L)” value ([2]; ( ) experiment) was “(50) U/L”, the “AST (U/L)” value ([2]; ( ) experiment) was “(131) U/L” and the BMI ([2]; ( ) experiment) was “(3.0)”. For the same compound, the “FFA (μEq/L)” value ([2]; ( ) experiment) was “(2310) μEq/L”, the “Fat (g), weight of fat removed around the epididymis and the kidney” value ([2]; ( ) experiment) was “(1.04) g” and the “LDL (mg/dL)” value ([2]; ( ) experiment) was “(12) mg/dL”. The “Liver (g), weight of liver” value ([2]; ( ) experiment) was “(1.15) g”, the “HbA1c (%) 4 weeks” value ([3]; 4 weeks after administration, 300 mg/kg oral once daily) was 5.3% and the “HbA1c (%) 6 weeks” value ([3]; 6 weeks after administration, 300 mg/kg oral once daily) was 5.7%. The “HbA1c (%) Before administration” value ([3]; before administration, 300 mg/kg group) was 4.7% and the inhibition in vivo at 150 mg/kg [4] was 19%.

For `CCOc1ccc(C2COc3c(ccc4c3CCC(C)(C)O4)C2)c(O)c1` (centres unmarked) [Compound 15, 3-(2-hydroxy-4-ethoxyphenyl)-8,8-dimethyl-2,3,4,8,9,10-hexahydropyrano [2,3-f] chromene], the “concentration of compound remaining” value [1]; 0 was 100%, the “concentration of compound remaining” value ([1]; 8 h) was 100% and the “concentration of compound remaining” value ([1]; 24 h) was 100%. For the same compound, the “concentration of compound remaining” value ([1]; 48 h) was 98%, the “concentration of compound remaining” value ([1]; 72 h) was 100% and the stability in words [1] was “very stable”. The “ALT (U/L)” value ([2]; experiment without parenthesis) was 52 U/L, the “AST (U/L)” value ([2]; experiment without parenthesis) was 143 U/L and the BMI ([2]; experiment without parenthesis) was 3.6. The “FFA (μEq/L)” value ([2]; experiment without parenthesis) was 1760 μEq/L, the “Fat (g), weight of fat removed around the epididymis and the kidney” value ([2]; experiment without parenthesis) was 2.02 g and the “LDL” value ([2]; experiment without parenthesis) was 10 mg/dL. The “Liver (g), weight of liver” value ([2]; experiment without parenthesis) was 1.28 g, the “capacity of promoting glucose uptake, in words” value [5] was “better than that of the existing therapeutic agent for diabetes” and the inhibition in vivo at 150 mg/kg [4] was 14%.
